Reference: PubChem BioAssay AID248 (DTP/NCI, 2004)
Toxic doses and inconclusive results are not listed.

Tested on: L1210 leukemia ip in BDF1 mice, survival T/C
Test: NCI In Vivo Anticancer Drug Screen. Data for tumor model L1210 Leukemia (intraperitoneal) in B6D2F1 (BDF1) mice
Conditions: endpoint: mean survival time, higher = longer survival
Summary of the method: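 Tumor cells were implanted, animals were treated, and survival was followed. The result divides the treated measurement by the vehicle-control measurement.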

[1] = dose: 100.0 mg/kg/injection, schedule: Q04DX003 (ip), vehicle: Klucel (hydroxypropylcellulose) (HPC)
[2] = dose: 100.0 mg/kg/injection, schedule: Q04DX003 (ip), vehicle: saline
[3] = dose: 200.0 mg/kg/injection, schedule: Q04DX003 (ip), vehicle: Klucel (hydroxypropylcellulose) (HPC)
[4] = dose: 200.0 mg/kg/injection, schedule: Q04DX003 (ip), vehicle: saline
[5] = dose: 400.0 mg/kg/injection, schedule: Q04DX003 (ip), vehicle: Klucel (hydroxypropylcellulose) (HPC)
[6] = dose: 400.0 mg/kg/injection, schedule: Q04DX003 (ip), vehicle: saline
[7] = dose: 100.0 mg/kg/injection, schedule: Q04DX003 (ip), vehicle: carboxymethylcellulose (CMC)
[8] = dose: 200.0 mg/kg/injection, schedule: Q04DX003 (ip), vehicle: carboxymethylcellulose (CMC)
[9] = dose: 400.0 mg/kg/injection, schedule: Q04DX003 (ip), vehicle: carboxymethylcellulose (CMC)

SMILES: Nn1cnc2c(SCc3ccccc3)ncnc21
- T/C (dose: 50.0 mg/kg/injection, schedule: Q01DX001 (ip), vehicle: carboxymethylcellulose (CMC)): 101 % of control
- T/C (dose: 62.0 mg/kg/injection, schedule: Q01DX015 (ip), vehicle: carboxymethylcellulose (CMC)): 115 % of control
- T/C (dose: 93.0 mg/kg/injection, schedule: Q01DX015 (ip), vehicle: carboxymethylcellulose (CMC)): 121 % of control
- T/C (dose: 100.0 mg/kg/injection, schedule: Q01DX001 (ip), vehicle: carboxymethylcellulose (CMC)): 101 % of control
- T/C (dose: 140.0 mg/kg/injection, schedule: Q01DX015 (ip), vehicle: carboxymethylcellulose (CMC)): 158 % of control
- T/C (dose: 200.0 mg/kg/injection, schedule: Q01DX001 (ip), vehicle: carboxymethylcellulose (CMC)): 122 % of control

SMILES: O=C(O)C1CCCCC1C(=O)O (stereo unspecified)
- T/C (dose: 100.0 mg/kg/injection, schedule: Q01DX001 (ip), vehicle: Klucel (hydroxypropylcellulose) (HPC)): 103 % of control
- T/C [1]: 101 % of control
- T/C [2]: 95 % of control
- T/C (dose: 200.0 mg/kg/injection, schedule: Q01DX001 (ip), vehicle: Klucel (hydroxypropylcellulose) (HPC)): 91 % of control
- T/C [3]: 97 % of control
- T/C [4]: 98 % of control
- T/C (dose: 400.0 mg/kg/injection, schedule: Q01DX001 (ip), vehicle: Klucel (hydroxypropylcellulose) (HPC)): 93 % of control
- T/C [5]: 97 % of control
- T/C [6]: 98 % of control

SMILES: CC1CC(C)(C)N=C(CCC[N+](=O)[O-])O1 (stereo unspecified)
- T/C (dose: 200.0 mg/kg/injection, schedule: Q04DX003 (ip), vehicle: other): 103 % of control
- T/C (dose: 400.0 mg/kg/injection, schedule: Q04DX003 (ip), vehicle: other): 88 % of control

SMILES: CC1(C)OC2OC(/C=C\C=O)C3OC(C)(C)OC3C2O1 (stereo unspecified)
- T/C (dose: 100.0 mg/kg/injection, schedule: Q04DX003 (ip), vehicle: acetone): 100 % of control
- T/C (dose: 200.0 mg/kg/injection, schedule: Q04DX003 (ip), vehicle: acetone): 104 % of control

SMILES: COc1ccc2c(c1)CC/C(=C\c1ccccn1)C2=O
- T/C [7]: 98 % of control
- T/C [8]: 97 % of control
- T/C [9]: 98 % of control

SMILES: O=C1OC(=O)c2ccc(Sc3ccccn3)c3cccc1c23
- T/C [7]: 93 % of control
- T/C [8]: 88 % of control
- T/C [9]: 93 % of control

SMILES: COc1ccc(CCN=C(c2ccccc2)c2ccccc2)cc1OC
- T/C [2]: 94 % of control
- T/C [4]: 94 % of control
- T/C [6]: 97 % of control

SMILES: CCC[CH2][Sn]([Br])([c]1ccccc1)[c]1ccccc1
- T/C (dose: 0.39 mg/kg/injection, schedule: Q01DX009 (ip), vehicle: saline with Tween-80): 92 % of control
- T/C (dose: 0.78 mg/kg/injection, schedule: Q01DX009 (ip), vehicle: saline with Tween-80): 101 % of control
- T/C (dose: 1.56 mg/kg/injection, schedule: Q01DX009 (ip), vehicle: saline with Tween-80): 89 % of control

SMILES: COC(=O)C1Oc2ccc(Cl)cc2Cc2cc(Cl)ccc2O1
- T/C (dose: 100.0 mg/kg/injection, schedule: Q01DX009 (ip), vehicle: Klucel (hydroxypropylcellulose) (HPC)): 93 % of control
- T/C [1]: 100 % of control
- T/C (dose: 200.0 mg/kg/injection, schedule: Q01DX009 (ip), vehicle: Klucel (hydroxypropylcellulose) (HPC)): 93 % of control
- T/C [3]: 93 % of control
- T/C (dose: 400.0 mg/kg/injection, schedule: Q01DX009 (ip), vehicle: Klucel (hydroxypropylcellulose) (HPC)): 93 % of control
- T/C [5]: 90 % of control

SMILES: CC(=O)c1ccc2cc(O)ccc2c1
- T/C (dose: 50.0 mg/kg/injection, schedule: Q04DX003 (ip), vehicle: saline): 101 % of control
- T/C (dose: 100.0 mg/kg/injection, schedule: Q01DX001 (ip), vehicle: saline): 97 % of control
- T/C [2]: 101 % of control
- T/C (dose: 200.0 mg/kg/injection, schedule: Q01DX001 (ip), vehicle: saline): 101 % of control
- T/C [4]: 103 % of control
- T/C (dose: 400.0 mg/kg/injection, schedule: Q01DX001 (ip), vehicle: saline): 104 % of control

SMILES: COc1cc(C)c(C)cc1C(C)C(C)C(=O)O (stereo unspecified)
- T/C [1]: 97 % of control
- T/C [3]: 98 % of control
- T/C [5]: 98 % of control
